Among the test systems are SK-OV-3 ovarian; KM12 colon; MDA-MB-435; M14 melanoma; U251 CNS; NCI/ADR-RES ovarian; PC-3 prostate; SNB-75 CNS.
Holding throughout (assay): inhibition of tumour cell growth, NCI panel, 48 h

Values joined by “and” are separate entries in the source; they are usually repeats but may differ in a detail not shown here. Identical values can stand only once.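 96-well plates; 48 h exposure; 5 concentrations. Endpoints by linear interpolation between flanking doses. Not reached: highest tested concentration assigned. GI50 is the concentration that inhibits growth by half. TGI is the concentration that stops growth completely.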

Take `COc1cc2c(cc1C)NC(=O)/C2=C/c1ccnc2ccccc12`: the GI50 in the assay on SK-OV-3 ovarian is 12.6 µM; with KM12 colon, 26.2 µM; with MDA-MB-435, 11.4 µM; in the assay with M14 melanoma, over 50 µM; with U251 CNS, 9.92 µM; with NCI/ADR-RES ovarian, 15.6 µM. The GI50 in the assay with PC-3 prostate is 7.07 µM. Moreover, the TGI was over 50 µM in the assay on SK-OV-3 ovarian; over 50 µM in the assay with KM12 colon; over 50 µM in the assay on MDA-MB-435; over 50 µM with M14 melanoma; 35.9 µM in the assay with U251 CNS; 41.2 µM with NCI/ADR-RES ovarian. This compound came in with a TGI in the assay on PC-3 prostate of over 50 µM.
Consider `CCC[CH2][Sn-]([CH2]CCC)([CH2]CCC)[O]C(=O)C(C)C`, for which the GI50 was 0.151 µM with SK-OV-3 ovarian; 0.0347 µM in the assay with KM12 colon; 0.153 µM with MDA-MB-435; 0.109 µM in the assay with M14 melanoma; 0.144 µM with U251 CNS; 0.154 µM in the assay with NCI/ADR-RES ovarian. The GI50 with PC-3 prostate was 0.107 µM. Besides, the TGI in the assay with SK-OV-3 ovarian is 0.293 µM; in the assay with KM12 colon, 0.145 µM; in the assay with MDA-MB-435, 0.289 µM; in the assay on M14 melanoma, 0.23 µM; with U251 CNS it was 0.294 µM; in the assay with NCI/ADR-RES ovarian, 0.46 µM. The TGI in the assay on PC-3 prostate was determined as 0.25 µM.
Turning to `CCN(CC)C(=S)SSC(C)C`, the GI50 is 30.3 µM with SK-OV-3 ovarian; 15.8 µM in the assay on SNB-75 CNS; 16.1 µM in the assay with MDA-MB-435; 6.1 µM with M14 melanoma; 13.8 µM in the assay on U251 CNS; 16 µM in the assay on NCI/ADR-RES ovarian. Moreover, the GI50 with PC-3 prostate was 14.1 µM. The TGI in the assay with SK-OV-3 ovarian came to 95.7 µM; in the assay with SNB-75 CNS it was 37.6 µM; with MDA-MB-435 it was 49.5 µM; with M14 melanoma, 20.6 µM; with U251 CNS it was 32.1 µM; in the assay on NCI/ADR-RES ovarian, 35.7 µM. The TGI in the assay on PC-3 prostate was 29.2 µM.
For the compound `CCCC(=O)O[C@]1(C)CC[C@@H]2[C@H]3[C@@H]1[C@@H]1C[C@@](C)(O)[C@H](OC)CC[C@](C)(OC(=O)[C@@H]2C)[C@H]3O1`, the GI50 in the assay on SK-OV-3 ovarian is 31 µM; in the assay on KM12 colon, 19.4 µM; in the assay with SNB-75 CNS, 16.3 µM; in the assay with MDA-MB-435, 34.3 µM; in the assay on M14 melanoma, 28.9 µM; in the assay with U251 CNS, 56.9 µM. Moreover, in the assay with NCI/ADR-RES ovarian, the GI50 was 67.1 µM. Moreover, the TGI in the assay on SK-OV-3 ovarian was 97.1 µM; in the assay with KM12 colon, 44.7 µM; in the assay on SNB-75 CNS it was 39.2 µM; in the assay with MDA-MB-435 it was over 100 µM; with M14 melanoma, over 100 µM; in the assay with U251 CNS, over 100 µM. In the assay with NCI/ADR-RES ovarian, this compound displayed a TGI of over 100 µM.
`CC(C)Cc1cnc(CC(C)C)c(=O)[nH]1`: the TGI with SK-OV-3 ovarian, in the assay with KM12 colon, in the assay on SNB-75 CNS, in the assay with MDA-MB-435, in the assay on M14 melanoma and in the assay with U251 CNS was over 100 µM throughout. In the assay on PC-3 prostate, this compound had a TGI of over 100 µM.
In the case of `O=C(Nc1sc2c(c1C(=O)O)CCCC2)c1ccco1`, the GI50 in the assay on SK-OV-3 ovarian is over 50 µM; in the assay on KM12 colon, 29.5 µM; with SNB-75 CNS it was over 50 µM; in the assay on MDA-MB-435, over 50 µM; in the assay with M14 melanoma it was over 50 µM; with U251 CNS it was 16.4 µM. In addition, in the assay on PC-3 prostate, the GI50 is 45.9 µM. Also, the TGI in the assay on SK-OV-3 ovarian, in the assay on KM12 colon, in the assay with SNB-75 CNS, with MDA-MB-435, in the assay with M14 melanoma and with U251 CNS was over 50 µM in each case. For the same compound, the TGI in the assay on PC-3 prostate was over 50 µM.
For the compound `O=S(=O)(NC1=NCCN1C(=S)SN1CCn2c1nsc2=S)c1ccc(Cl)cc1`, the GI50 with KM12 colon is 15.9 µM; in the assay on SNB-75 CNS it was 12.3 µM; with MDA-MB-435, 3.02 µM; in the assay on M14 melanoma it was 12.9 µM; in the assay on U251 CNS it was 10.9 µM; with NCI/ADR-RES ovarian, 23.1 µM. Besides, the GI50 in the assay with PC-3 prostate was 7.54 µM. The TGI with KM12 colon was 33.6 µM; in the assay on SNB-75 CNS it was 35.6 µM; with MDA-MB-435, 10.5 µM; in the assay with M14 melanoma it was 32.5 µM; with U251 CNS it was 24.4 µM; in the assay with NCI/ADR-RES ovarian, 60.8 µM. In the assay on PC-3 prostate, this compound came in with a TGI of 22.1 µM.
Take `COC1=CC(=O)O/C1=C(\OC)C1OC1c1ccccc1` (configuration not stated): the TGI in the assay with SK-OV-3 ovarian, in the assay with KM12 colon, with MDA-MB-435, in the assay with M14 melanoma, with U251 CNS and with NCI/ADR-RES ovarian was over 100 µM throughout. Also, the TGI in the assay with PC-3 prostate is over 100 µM.
On to `CCCCCCCC/C=C/CCCCCCCC1=NC(C)(C)CN1C(C)(C)CO`, for which the GI50 with SK-OV-3 ovarian is 14.4 µM; with KM12 colon, 1.97 µM; in the assay with SNB-75 CNS, 1.89 µM; in the assay on MDA-MB-435, 1.72 µM; in the assay on M14 melanoma it was 1.78 µM; in the assay with NCI/ADR-RES ovarian, 2.1 µM. The GI50 in the assay with PC-3 prostate was 1.83 µM. Moreover, the TGI in the assay with SK-OV-3 ovarian came to 29.3 µM; in the assay on KM12 colon, 3.45 µM; with SNB-75 CNS it was 5.77 µM; in the assay with MDA-MB-435, 3.26 µM; in the assay on M14 melanoma it was 3.22 µM; in the assay on NCI/ADR-RES ovarian it was 4.81 µM. The same compound showed a TGI in the assay on PC-3 prostate of 4.92 µM.
With `OCC(O)C(O)C(O)C(/C=N\Nc1ncnc2c(Br)cc(Br)cc12)=N/Nc1ncnc2c(Br)cc(Br)cc12` (configuration not stated), the TGI in the assay on SK-OV-3 ovarian is 10 µM and > 100 µM; in the assay with KM12 colon, 70.8 µM and > 100 µM; with MDA-MB-435, 21.7 µM and > 100 µM; in the assay on M14 melanoma it was 28.3 µM and 44.2 µM; with PC-3 prostate it was 13 µM and > 100 µM. The GI50 with MDA-MB-435 is 5.24 µM and 12.6 µM.
For `CCOc1c(Br)cc(Br)cc1C=C(C#N)C#N`, the TGI is over 10 µM in the assay on SK-OV-3 ovarian; over 10 µM in the assay on KM12 colon; over 10 µM in the assay on SNB-75 CNS; over 10 µM with MDA-MB-435; over 10 µM in the assay with U251 CNS; 4.98 µM with NCI/ADR-RES ovarian. This compound also yielded a TGI in the assay on PC-3 prostate of over 10 µM.
For `Cc1cccc(N2C(=O)/C(=C/C(Cl)=C/c3ccc([N+](=O)[O-])cc3)SC2=S)c1C`, the GI50 with SK-OV-3 ovarian was 4.93 µM; in the assay on M14 melanoma it was 2.39 µM; in the assay on U251 CNS, 1.95 µM; with NCI/ADR-RES ovarian, 2.97 µM; in the assay on PC-3 prostate, 1.39 µM. Further, the TGI with SK-OV-3 ovarian was over 100 µM; in the assay on M14 melanoma it was 6.86 µM; with U251 CNS, 5.94 µM; in the assay with NCI/ADR-RES ovarian it was over 100 µM; in the assay on PC-3 prostate, 4.93 µM.
`O=c1c(-c2ccc3c(c2)OCO3)coc2c3c(ccc12)OCO3`: the TGI is 40.9 µM in the assay with SK-OV-3 ovarian; over 100 µM in the assay with KM12 colon; 49.7 µM with SNB-75 CNS; over 100 µM in the assay with MDA-MB-435; over 100 µM in the assay with M14 melanoma; over 100 µM in the assay with U251 CNS. For the same compound, the TGI in the assay with PC-3 prostate was over 100 µM.

These data come from PubChem BioAssay (NCI).
